Our source for the IC50 and inhibition values is ChEMBL document CHEMBL2311454, “Discovery and evaluation of novel inhibitors of mycobacterium protein tyrosine phosphatase B from the 6-Hydroxy-benzofuran-5-carboxylic acid scaffold” (J Med Chem, 2013).

pIC50: −log10 of the molar value. Activity calls are given as the source filed them. The rule behind the calls is not given here. Bounds are passed on as bounds.

The target of experiment [1] is T1, Tyrosine-protein phosphatase non-receptor type 2 (Homo sapiens, UniProt P17706).
T1 sequence (P17706 whole entry): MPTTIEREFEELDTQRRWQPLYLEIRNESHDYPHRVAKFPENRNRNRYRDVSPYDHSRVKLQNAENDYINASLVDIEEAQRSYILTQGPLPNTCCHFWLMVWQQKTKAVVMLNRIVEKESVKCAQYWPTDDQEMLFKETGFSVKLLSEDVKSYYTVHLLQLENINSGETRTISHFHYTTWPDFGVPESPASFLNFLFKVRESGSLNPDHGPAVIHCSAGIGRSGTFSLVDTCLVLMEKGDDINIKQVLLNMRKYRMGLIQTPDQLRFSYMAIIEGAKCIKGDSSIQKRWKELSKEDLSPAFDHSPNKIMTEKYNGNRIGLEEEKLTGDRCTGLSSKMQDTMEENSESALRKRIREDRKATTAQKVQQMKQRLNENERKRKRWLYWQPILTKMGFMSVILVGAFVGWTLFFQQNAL
Nature of the experiment: Inhibition of TCPTP (unknown origin) expressed in Escherichia coli using pNPP substrate after 5 mins by spectrophotometric analysis.

Experiment [2] concerns the target T2, Receptor-type tyrosine-protein phosphatase C (Homo sapiens, UniProt P08575).
T2 sequence (P08575 whole entry): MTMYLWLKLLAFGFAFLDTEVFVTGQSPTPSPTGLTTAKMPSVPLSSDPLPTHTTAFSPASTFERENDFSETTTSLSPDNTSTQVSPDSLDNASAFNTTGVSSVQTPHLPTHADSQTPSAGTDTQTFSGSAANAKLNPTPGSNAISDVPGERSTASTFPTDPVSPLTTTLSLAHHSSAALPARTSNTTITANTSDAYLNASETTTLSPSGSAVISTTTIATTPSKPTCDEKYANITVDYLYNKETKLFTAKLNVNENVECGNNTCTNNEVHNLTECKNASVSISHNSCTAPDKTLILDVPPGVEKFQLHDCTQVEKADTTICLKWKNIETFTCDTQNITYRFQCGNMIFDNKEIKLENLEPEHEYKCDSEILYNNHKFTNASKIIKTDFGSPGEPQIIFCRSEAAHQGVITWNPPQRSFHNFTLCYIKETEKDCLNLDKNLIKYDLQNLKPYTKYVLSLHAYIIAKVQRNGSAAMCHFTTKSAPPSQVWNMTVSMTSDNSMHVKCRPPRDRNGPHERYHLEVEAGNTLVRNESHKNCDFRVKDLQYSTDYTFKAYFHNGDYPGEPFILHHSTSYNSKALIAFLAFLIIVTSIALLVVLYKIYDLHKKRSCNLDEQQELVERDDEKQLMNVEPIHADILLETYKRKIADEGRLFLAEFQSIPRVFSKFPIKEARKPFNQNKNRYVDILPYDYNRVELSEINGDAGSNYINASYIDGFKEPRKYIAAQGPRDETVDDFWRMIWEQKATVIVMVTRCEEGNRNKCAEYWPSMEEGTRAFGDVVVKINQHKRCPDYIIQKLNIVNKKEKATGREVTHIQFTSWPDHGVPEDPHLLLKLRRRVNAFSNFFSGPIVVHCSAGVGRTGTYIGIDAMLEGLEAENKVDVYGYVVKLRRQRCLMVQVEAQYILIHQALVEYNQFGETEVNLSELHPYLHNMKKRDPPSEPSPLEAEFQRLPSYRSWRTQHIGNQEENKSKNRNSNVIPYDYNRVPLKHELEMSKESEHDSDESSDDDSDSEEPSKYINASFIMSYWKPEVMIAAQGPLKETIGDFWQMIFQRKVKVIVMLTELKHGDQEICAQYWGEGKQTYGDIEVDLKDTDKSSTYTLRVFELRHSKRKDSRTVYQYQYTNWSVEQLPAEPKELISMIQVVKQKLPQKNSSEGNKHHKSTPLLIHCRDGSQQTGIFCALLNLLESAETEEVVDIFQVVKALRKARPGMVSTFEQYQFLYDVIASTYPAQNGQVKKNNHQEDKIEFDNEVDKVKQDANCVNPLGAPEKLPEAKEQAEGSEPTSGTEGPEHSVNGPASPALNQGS
The experiment is described as follows: Inhibition of CD45 (unknown origin) expressed in Escherichia coli using pNPP substrate after 5 mins by spectrophotometric analysis.

The target of experiment [3] is Tyrosine-protein phosphatase non-receptor type 6 (Homo sapiens, UniProt P29350). The experiment is described as follows: Inhibition of SHP1 (unknown origin) expressed in Escherichia coli using pNPP substrate after 5 mins by spectrophotometric analysis.
Sequence of Tyrosine-protein phosphatase non-receptor type 6 (P29350 whole entry): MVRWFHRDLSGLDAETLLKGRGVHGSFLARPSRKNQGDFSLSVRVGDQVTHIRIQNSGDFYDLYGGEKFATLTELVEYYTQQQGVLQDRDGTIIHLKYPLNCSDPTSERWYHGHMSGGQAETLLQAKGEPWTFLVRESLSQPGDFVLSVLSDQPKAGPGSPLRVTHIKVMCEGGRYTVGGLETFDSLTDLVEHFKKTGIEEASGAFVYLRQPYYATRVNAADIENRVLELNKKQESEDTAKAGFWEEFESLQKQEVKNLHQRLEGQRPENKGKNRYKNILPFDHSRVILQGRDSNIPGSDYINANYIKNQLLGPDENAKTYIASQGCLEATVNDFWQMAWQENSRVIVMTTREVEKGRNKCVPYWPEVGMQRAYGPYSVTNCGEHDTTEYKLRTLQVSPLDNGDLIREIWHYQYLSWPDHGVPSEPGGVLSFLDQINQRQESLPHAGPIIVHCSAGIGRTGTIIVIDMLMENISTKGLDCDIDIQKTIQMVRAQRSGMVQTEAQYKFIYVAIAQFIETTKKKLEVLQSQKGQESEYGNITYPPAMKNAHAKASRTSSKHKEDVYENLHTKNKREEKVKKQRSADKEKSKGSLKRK
Experiment [4] in a line: Inhibition of Mycobacterium tuberculosis PTPB expressed in Escherichia coli using pNPP substrate after 5 mins by spectrophotometric analysis.
The subject of experiment [5] is RAW264.7. Nature of the experiment: Inhibition of Mycobacterium tuberculosis PTPB expressed in mouse RAW264.7 macrophages assessed as induction of apoptosis after 1 hr by annexin V-FITC /propidium iodide staining-based flow cytometric analysis. The experiment is classed as cell-based.
In experiment [6] the test system is RAW264.7. The experiment is described as follows: Inhibition of Mycobacterium tuberculosis PTPB expressed in mouse RAW264.7 macrophages assessed as increase in caspase activity after 1 hr by spectrophotometric analysis. The format is cell-based.
For experiment [7], the system named is RAW264.7. The experiment is described as follows: Inhibition of Mycobacterium tuberculosis PTPB expressed in mouse RAW264.7 macrophages assessed as decrease in Akt activity after 1 hr by Western blotting analysis. The format is cell-based.
Experiment [8] relates to Mycobacterium tuberculosis. The experiment is described as follows: Inhibition of Mycobacterium tuberculosis PTPB expressed in mouse RAW264.7 macrophages assessed as restoration of IFNgamma-induced IL-6 production after 1 hr by ELISA.
The test system of experiment [9] is Mycobacterium tuberculosis. Nature of the experiment: Inhibition of Mycobacterium tuberculosis PTPB expressed in mouse RAW264.7 macrophages assessed as restoration of IFNgamma-induced p38 activation after 1 hr by Western blotting analysis.
Experiment [10] deals with Mycobacterium tuberculosis. The experiment is described as follows: Inhibition of Mycobacterium tuberculosis PTPB expressed in mouse RAW264.7 macrophages assessed as restoration of IFNgamma-induced ERK1/2 activation after 1 hr by Western blotting analysis.

With `O=C(O)c1cc2c(CCc3cccc(C(F)(F)F)c3)c(-c3ccccc3)oc2cc1O`, the pIC50 in experiment [1] and in experiment [2] was 5.00 in each case.
As to `O=C(O)c1cc2c(CCc3ccc(Oc4ccccc4)cc3)c(-c3ccccc3)oc2cc1O`, the pIC50 is 5.43 in experiment [3], 4.93 in experiment [1] and 4.85 in [2].
Regarding `O=C(O)c1cc2c(/C=C\c3cc(F)cc(F)c3)c(-c3ccccc3)oc2cc1O`, the results for the pIC50 in experiment [1], in experiment [4] and in experiment [2] were 5.02, 5.92 and 4.88, respectively.
With `C#Cc1c(-c2ccccc2)oc2cc(O)c(C(=O)O)cc12`, the pIC50 in experiment [3] was under 4.30; in experiment [1], under 4.30; in experiment [2], 4.10.
With `C[C@]12CCC(=O)C=C1CC[C@@H]1[C@@H]2CC[C@@]2(C)[C@H]1CC[C@]2(O)C#Cc1c(-c2ccccc2)oc2cc(O)c(C(=O)O)cc12`, the pIC50 in experiment [3] is under 4.00; in [1], under 4.30; in experiment [4], 5.29; in [2], under 4.00.
Regarding `O=C(O)c1cc2c(CCc3cccc(F)c3)c(-c3ccccc3)oc2cc1O`, the negative logarithm of the IC50 (pIC50) in experiment [3] is 4.94; in experiment [1], 4.48; in [2], 3.92.
Consider `O=C(O)c1cc2c(CCc3ccc(OC(F)(F)F)cc3)c(-c3ccccc3)oc2cc1O`, for which the pIC50 was 5.15 in [3], 5.05 in experiment [1], 5.47 in [4] and 4.72 in experiment [2]. In addition, the inhibition result (in the experiment with RAW264.7 [5]; in the experiment with RAW264.7 [6]; with RAW264.7 [7]; in [8]; in [9]; in experiment [10]) was “inactive” throughout.
With `O=C(O)c1cc2c(C#CCO)c(-c3ccccc3)oc2cc1O`, the negative logarithm of the IC50 (pIC50) in experiment [3] is under 4.00; in experiment [1] it was under 4.00; in [4], 4.66; in experiment [2], under 4.00.
